Data published in patent publication US8338565B2, “Macrocyclic compounds for inhibition of tumor necrosis factor alpha” (Ensemble Therapeutics Corporation, priority 2008, dated 2012).
pIC50: −log10 of the molar value. Where two headings read alike, the source gives them in different places. Numbered stars: 1 amine (or outer) side, 2 acyl side, 3 side chain; on linkers, the order of the positions; unused ones are H or OH. Bridge positions count the residues as written; N and C are the ends. Square brackets hold non-standard residues; d marks the D form. Peptide text beside a SMILES is read from it. Phe(4-(4-pyridyl)) = N[C@@H](Cc1ccc(-c2ccncc2)cc1)C(=O)O; Bip = N[C@@H](Cc1ccc(-c2ccccc2)cc1)C(=O)O; Phe(4-NH2) = Nc1ccc(C[C@H](N)C(=O)O)cc1; d(hPhe) = N[C@H](CCc1ccccc1)C(=O)O; d2Thi = N[C@H](Cc1cccs1)C(=O)O; Suc = O=C(CCC(=O)[*:2])[*:1]

Tests used:
rat paw edema model [1] = assay: Rat paw edema model (carrageenan), anti-inflammatory activity; assay type: in vivo, Sprague-Dawley (SD) rats
Method: Compounds 3, 4, 10 and 202 were tested in a rat paw edema model to determine anti-inflammatory activity. Seven groups (one for Vehicle A [15 mL PEG400, 3 mL Graves Grain alcohol (190 proof), 1.8 mL dimethylacetamide and 10.2 mL deionized water] alone as a negative control, one for Vehicle B [0.1M NaHCO3] alone as a negative control, one for each of the four test compounds dissolved in Vehicle A, and one for indomethacin dissolved in Vehicle B as a positive control), each group containing six Sprague-Dawley (SD) rats (180-200 g) randomized by weight. Initial paw volumes were measured by placing the right hind limb of the rat up to the top of the hock in a beaker of water sitting on a scale that had been tared to zero and recording the readout.
Rats were pre-treated with either i) one of the test compounds, or ii) a positive or negative control. Vehicle A alone and test compound dissolved in Vehicle A (Compound 3-1.0 mg/kg; Compound 4-0.4 mg/kg; Compound 10-0.5 mg/kg; Compound 202-0.3 mg/kg) were administered by intravenous injection. Vehicle B alone and indomethacin (5 mg/kg in 0.1M NaHCO3) was administered by intraperitoneal injection. Thirty minutes after this pretreatment, rats were anesthetized and injected with 0.1 mL of carrageenan (10 mg/mL in water) in the subplantar region of the right hind foot using a ½ inch 26 gauge needle attached to a 1 cc syringe.
At 2, 4 and 6 hours post-carrageenan injection, the right hind foot of each rat was measured for paw volume as described above.
We next investigated the effect of varying intravenous doses of Compound 202 (0.05, 0.10, 0.30, and 1.00 mg/kg) in the same model using the same protocol (6 rats per group). […] We also investigated the affect of oral dosing (10 mg/kg) of Compound 202 in the same model. For oral dosing, a 2.5 mg/mL suspension of Compound 202 was prepared in Vehicle A. Rats were orally administered 4 mL/kg of that suspension.

[2] = system: TNF-α (degradation of IkB in HeLa cells or A431 cells); assay: Human cell-based assay: inhibition of TNF-α induced degradation of IkB; details: for inhibition at 5 µM: read-out: Inhibition at Various Compound Concentrations, 5 μM; for inhibition at 10 µM: read-out: Inhibition at Various Compound Concentrations, 10 μM
[3] = target: T1, TNFα / TNFα receptor (TNFα R1/Fc) (Homo sapiens, UniProt P01375); assay: Inhibition of binding of TNFα to the TNFα receptor (plate ELISA competition); details: Table 2
T1 construct: purchased R&D Systems
Summary of the method: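 Compound dilutions were preincubated 30 min at RT with 8.33 nM TNFα R1/Fc in PBST with 2% DMSO, then added to wells coated with 15 nM TNFα for 30 min. Bound receptor was detected with HRP anti-human Fc and TMB, read as A450.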

rat paw edema model [4] = assay: Rat paw edema model (carrageenan), anti-inflammatory activity; assay type: in vivo, Sprague-Dawley (SD) rats; details: Table 8; 3 mg/kg PO; 4 h post-carrageenan
[5] = Table 5, 1 mg/kg IV, 2 h post-carrageenan
[6] = Table 5, 1 mg/kg IV, 4 h post-carrageenan
[7] = Table 5, 1 mg/kg IV, 6 h post-carrageenan
[8] = Activity (IC50, inhibition of TNFα binding to TNFα R1/Fc)
[9] = Table 4, 1 mg/kg IV, 2 h post-carrageenan
[10] = Table 4, 1 mg/kg IV, 4 h post-carrageenan
[11] = Table 4, 1 mg/kg IV, 6 h post-carrageenan
[12] = Table 6, 1 mg/kg IV, 2 h post-carrageenan
[13] = Table 6, 1 mg/kg IV, 4 h post-carrageenan
[14] = Table 6, 1 mg/kg IV, 6 h post-carrageenan
[15] = read-out: Activity (IC50, inhibition of TNFα binding to TNFα R1/Fc)
[16] = 5 μM compound, HeLa or A431 cells
[17] = 10 μM compound, HeLa or A431 cells
[18] = Table 7, 1 mg/kg IV, 2 h post-carrageenan
[19] = Table 7, 1 mg/kg IV, 4 h post-carrageenan
[20] = Table 7, 1 mg/kg IV, 6 h post-carrageenan

T1 sequence (P01375 77-233 limits assumed, species assumed): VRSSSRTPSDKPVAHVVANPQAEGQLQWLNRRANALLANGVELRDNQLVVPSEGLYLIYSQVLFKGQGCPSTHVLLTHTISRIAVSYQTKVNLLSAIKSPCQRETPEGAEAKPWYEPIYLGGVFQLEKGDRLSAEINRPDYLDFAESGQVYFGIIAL

O=C1COc2ccc(cc2)C[C@@H](C(=O)NCS(=O)(=O)O)NC(=O)[C@H](CCc2ccccc2)NC(=O)[C@@H](Cc2ccc(-c3ccccc3)cc2)NC(=O)[C@H](Cc2cccs2)N1 [Compound 482]
Change in Paw Volume (rat paw edema model [1]; [5]): 0.73 ± 0.19 mL
Change in Paw Volume (rat paw edema model [1]; [6]): 0.99 ± 0.34 mL
Change in Paw Volume (rat paw edema model [1]; [7]): 0.86 ± 0.27 mL
Change in Paw Volume (rat paw edema model [1]; Table 8, 3 mg/kg PO, 2 h post-carrageenan): 1.13 ± 0.15 mL
Change in Paw Volume (rat paw edema model [1]; Table 8, 3 mg/kg PO, 6 h post-carrageenan): 1.14 ± 0.10 mL
inhibition at 5 µM [2]: 10 to 50%
inhibition at 10 µM [2]: 10 to 50%
pIC50 [3, 8]: > 5.00
Change in Paw Volume (rat paw edema model [4]): 1.18 ± 0.10 mL

O=C1COc2ccc(cc2)C[C@@H](C(=O)N[C@@H](CCc2ccccc2)C(=O)O)NC(=O)[C@H](Cc2ccccc2)NC(=O)[C@@H](Cc2ccc(-c3ccccc3)cc2)NC(=O)[C@H](Cc2cccs2)N1 [Compound 393]
Change in Paw Volume (rat paw edema model [1]; [9]): 1.24 ± 0.18 mL
Change in Paw Volume (rat paw edema model [1]; [10]): 1.54 ± 0.25 mL
Change in Paw Volume (rat paw edema model [1]; [11]): 1.56 ± 0.17 mL
Change in Paw Volume (rat paw edema model [1]; [12]): 1.27 ± 0.07 mL
Change in Paw Volume (rat paw edema model [1]; [13]): 1.28 ± 0.08 mL
Change in Paw Volume (rat paw edema model [1]; [14]): 1.42 ± 0.12 mL
inhibition at 5 µM [2]: 10 to 50%
inhibition at 10 µM [2]: > 80%
pIC50 [3, 8]: > 5.00

O=C1CCC(=O)N[C@H](Cc2cccs2)C(=O)N[C@@H](Cc2ccc(-c3ccccc3)cc2)C(=O)N[C@H](Cc2ccccc2)C(=O)N[C@H](C(=O)N[C@@H](Cc2ccccc2)C(=O)O)Cc2ccc(cc2)N1 [Compound 10] ([d2Thi][Bip][dF][Phe(4-NH2)]F-OH; linker N-4 via Suc)
Change in Paw Volume (rat paw edema model [1]; Table 3, 0.5 mg/kg IV, 2 h post-carrageenan): 0.54 ± 0.23 mL
Change in Paw Volume (rat paw edema model [1]; Table 3, 0.5 mg/kg IV, 4 h post-carrageenan): 1.11 ± 0.31 mL
Change in Paw Volume (rat paw edema model [1]; Table 3, 0.5 mg/kg IV, 6 h post-carrageenan): 1.23 ± 0.28 mL
inhibition at 25 µM ([2]; 25 μM compound, HeLa or A431 cells, read-out: Inhibition at Various Compound Concentrations, 25 μM): > 80%
pIC50 [3, 15]: 4.52 to 5.00

O=C1COc2ccc(cc2)C[C@@H](C(=O)O)NC(=O)[C@H](CCc2ccccc2)NC(=O)[C@@H](Cc2ccc(-c3ccccc3)cc2)NC(=O)[C@H](Cc2cccs2)N1 [Compound 348]
Change in Paw Volume (rat paw edema model [1]; [12]): 1.13 ± 0.10 mL
Change in Paw Volume (rat paw edema model [1]; [13]): 1.30 ± 0.20 mL
Change in Paw Volume (rat paw edema model [1]; [14]): 1.32 ± 0.11 mL
inhibition at 5 µM [2, 16]: 10 to 50%
inhibition at 10 µM [2, 17]: 50 to 80%
pIC50 [3, 15]: > 5.00

O=C(O)[C@H](Cc1ccccc1)NC(=O)[C@@H]1Cc2ccc(cc2)NC(=O)[C@H](O)[C@@H](O)C(=O)N[C@H](Cc2cccs2)C(=O)N[C@@H](Cc2ccc(-c3ccccc3)cc2)C(=O)N[C@H](Cc2ccccc2)C(=O)N1 [Compound 174]
Change in Paw Volume (rat paw edema model [1]; [18]): 1.22 ± 0.08 mL
Change in Paw Volume (rat paw edema model [1]; [19]): 1.53 ± 0.13 mL
Change in Paw Volume (rat paw edema model [1]; [20]): 1.70 ± 0.22 mL
inhibition at 5 µM [2, 16]: < 10%
inhibition at 10 µM [2, 17]: 10 to 50%
pIC50 [3, 15]: > 5.00

O=C(O)CCCNC(=O)[C@@H]1Cc2ccc(cc2)OCC(=O)N[C@@H](Cc2cccs2)C(=O)N[C@@H](Cc2ccc(-c3ccccc3)cc2)C(=O)N[C@@H](Cc2ccccc2)C(=O)N1 [Compound 342]
Change in Paw Volume (rat paw edema model [1]; [9]): 1.36 ± 0.10 mL
Change in Paw Volume (rat paw edema model [1]; [10]): 1.49 ± 0.20 mL
Change in Paw Volume (rat paw edema model [1]; [11]): 1.51 ± 0.15 mL
inhibition at 5 µM [2, 16]: < 10%
inhibition at 10 µM [2, 17]: 10 to 50%
pIC50 [3, 15]: > 5.00

O=C(O)[C@@H]1Cc2ccc(cc2)NC(=O)[C@H](O)[C@@H](O)C(=O)N[C@H](Cc2cccs2)C(=O)N[C@@H](Cc2ccc(-c3ccccc3)cc2)C(=O)N[C@H](Cc2ccccc2)C(=O)N1 [Compound 4]
Change in Paw Volume (rat paw edema model [1]; Table 3, 0.4 mg/kg IV, 2 h post-carrageenan): 0.72 ± 0.13 mL
Change in Paw Volume (rat paw edema model [1]; Table 3, 0.4 mg/kg IV, 4 h post-carrageenan): 1.16 ± 0.16 mL
Change in Paw Volume (rat paw edema model [1]; Table 3, 0.4 mg/kg IV, 6 h post-carrageenan): 1.16 ± 0.25 mL
inhibition at 10 µM [2, 17]: < 10%
pIC50 [3, 15]: 4.52 to 5.00

O=C1COc2ccc(cc2)C[C@@H](C(=O)N[C@@H](Cc2ccccc2)C(=O)O)NC(=O)[C@@H](CCc2ccccc2)NC(=O)[C@H](Cc2ccc(-c3ccccc3)cc2)NC(=O)[C@@H](Cc2cccs2)N1 [Compound 156]
Change in Paw Volume (rat paw edema model [1]; [18]): 1.49 ± 0.24 mL
Change in Paw Volume (rat paw edema model [1]; [19]): 1.51 ± 0.12 mL
Change in Paw Volume (rat paw edema model [1]; [20]): 1.81 ± 0.16 mL
inhibition at 5 µM [2]: 50 to 80%
inhibition at 10 µM [2]: > 80%
pIC50 [3, 8]: > 5.00

O=C1COc2ccc(cc2)C[C@@H](C(=O)O)NC(=O)[C@H](Cc2ccccc2)NC(=O)[C@H](Cc2ccc(-c3ccc(NC(=O)OCc4ccccc4)cc3)cc2)NC(=O)[C@H](Cc2cccs2)N1 [Compound 362]
Change in Paw Volume (rat paw edema model [1]; [5]): 1.17 ± 0.07 mL
Change in Paw Volume (rat paw edema model [1]; [6]): 1.22 ± 0.21 mL
Change in Paw Volume (rat paw edema model [1]; [7]): 1.15 ± 0.19 mL
inhibition at 5 µM [2]: < 10%
inhibition at 10 µM [2]: 10 to 50%
pIC50 [3, 15]: > 5.00

O=C1CCC(=O)N[C@H](CCc2ccccc2)C(=O)N[C@@H](Cc2ccc(-c3ccncc3)cc2)C(=O)N[C@H](Cc2ccccc2)C(=O)N[C@H](C(=O)N[C@@H](Cc2ccccc2)C(=O)O)Cc2ccc(cc2)N1 [Compound 426] ([d(hPhe)][Phe(4-(4-pyridyl))][dF][Phe(4-NH2)]F-OH; linker N-4 via Suc)
Change in Paw Volume (rat paw edema model [1]; [5]): 0.90 ± 0.15 mL
Change in Paw Volume (rat paw edema model [1]; [6]): 1.11 ± 0.18 mL
Change in Paw Volume (rat paw edema model [1]; [7]): 1.11 ± 0.23 mL
inhibition at 5 µM [2, 16]: 10 to 50%
inhibition at 10 µM [2, 17]: 10 to 50%
pIC50 [3, 15]: > 5.00

O=C1CCC(=O)N[C@H](CCc2ccccc2)C(=O)N[C@@H](Cc2ccc(-c3ccncc3)cc2)C(=O)N[C@H](Cc2ccccc2)C(=O)N[C@H](C(=O)O)Cc2ccc(cc2)N1 [Compound 419] ([d(hPhe)][Phe(4-(4-pyridyl))][dF][Phe(4-NH2)]-OH; linker N-4 via Suc)
Change in Paw Volume (rat paw edema model [1]; Table 8, 1 mg/kg IV, 2 h post-carrageenan): 1.22 ± 0.21 mL
Change in Paw Volume (rat paw edema model [1]; Table 8, 1 mg/kg IV, 4 h post-carrageenan): 1.32 ± 0.18 mL
Change in Paw Volume (rat paw edema model [1]; Table 8, 1 mg/kg IV, 6 h post-carrageenan): 1.16 ± 0.16 mL
inhibition at 5 µM [2, 16]: < 10%
inhibition at 10 µM [2, 17]: < 10%
pIC50 [3, 15]: 4.52 to 5.00
